Results from patent US20100298141A1, “SUBSTITUTED PYRIDINE N-OXIDE HERBICIDES” (E. I. DU PONT DE NEMOURS AND COMPANY, priority 2007, published 2010).

Legend:
Experiment in all cases: Test F preemergence test
[1] = system: common sowthistle; format: in vivo, Sonchus oleraceous; conditions: scale 0 to 100
Summary of the method: (§1)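 Compound in a non-phytotoxic solvent blend with surfactant is applied preemergence to planted seeds or postemergence to sugarcane plants. Plants and controls stay in the greenhouse 14 to 21 days before visual comparison.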

[2] = system: common chickweed; format: in vivo, Stellaria media; conditions: scale 0 to 100
Summary of the method: as §1

[3] = system: Canada horseweed; format: in vivo, Conyza canadensis; conditions: scale 0 to 100
Summary of the method: as §1

[4] = system: Russian thistle; format: in vivo, Salsola kali; conditions: scale 0 to 100
Source text: Seeds of plant species selected from bermudagrass (Cynodon dactylon), Surinam grass (Brachiaria decumbens), large crabgrass (Digitaria sanguinalis), green foxtail (Setaria viridis), goosegrass (Eleusine indica), johnsongrass (Sorghum halepense), kochia (Kochia scoparia), pitted morningglory (Ipomoea lacunosa), purple nutsedge (Cyperus rotundus), common ragweed (Ambrosia elation), mustard (Brassica nigra), guineagrass (Panicum maximum), […] (Paspalum dilatatum), barnyardgrass (Echinochloa crus-galli), southern sandbur (Cenchrus echinatus), common sowthistle (Sonchus oleraceous), prickly […] spinosa), Italian ryegrass (Lolium multiflorum), common purslane (Portulaca oleracea), broadleaf signalgrass (Brachiaria platyphylla), common groundsel (Senecio vulgaris), common chickweed (Stellaria media), Virginia dayflower (Commelina virginica), annual bluegrass (Poa annua), naked crabgrass (Digitaria nuda), […] cochinchinensis), quackgrass (Elytrigia repens), Canada horseweed (Conyza canadensis), field bindweed (Convolvulus arvensis), […] (Bidens bipinnata), common mallow (Malva sylvestris), Russian thistle (Salsola kali), and sugarcane (Saccharum officinarum) were planted and treated preemergence with test chemicals formulated in a non-phytotoxic solvent mixture which included a surfactant. At a different time, sugarcane was treated with postemergence applications of some of the test chemicals formulated in the same manner. Plants were approximately 3- to 4-leaf stage for the postemergence treatments. Treated plants and controls were maintained in a greenhouse for 14 to 21 days, after which time all species were compared to controls and visually evaluated. […] A dash (-) response means no test result.

[5] = system: spanishneedles; format: in vivo, Bidens bipinnata; conditions: scale 0 to 100; for Spanishneedles plant response rating: 125 g ai/ha
Summary of the method: as §1

Row | SMILES | Sowthistle plant response rating ([1]; 62 g ai/ha, Preemergence) | Plant response rating, Sowthistle ([1]; Preemergence, 31 g ai/ha) | Chickweed plant response rating ([2]; 62 g ai/ha, Preemergence) | Plant response rating, Chickweed ([2]; Preemergence, 16 g ai/ha) | Plant response rating, Chickweed ([2]; Preemergence, 31 g ai/ha) | Horseweed plant response rating ([3]; 62 g ai/ha, Preemergence) | Plant response rating, Horseweed ([3]; Preemergence, 16 g ai/ha) | Plant response rating, Horseweed ([3]; Preemergence, 31 g ai/ha) | Spanishneedles plant response rating ([5]; preemergence) | Plant response rating, Spanishneedles ([5]; Preemergence, 62 g ai/ha) | Plant response rating, Spanishneedles ([5]; Preemergence, 31 g ai/ha) | Plant response rating, Russian Thistle ([4]; 16 g ai/ha, preemergence) | other results
1 | Cn1nc(C(F)(F)F)c(C[S+]([O-])c2cccc[n+]2[O-])c1Cl (centres unmarked) [Compound 8] | 90 | 65 | 95 | 0 | 60 | 100 | 0 | 0 |  |  |  |  | Sowthistle plant response rating ([1]; 125 g ai/ha, preemergence): 100; Chickweed plant response rating ([2]; 125 g ai/ha, preemergence): 98; Horseweed plant response rating ([3]; 125 g ai/ha, preemergence): 100; Russian Thistle plant response rating ([4]; 125 g ai/ha, preemergence): 100
2 | Cc1cc[n+]([O-])c([S+]([O-])Cc2c(C(F)(F)F)nn(C)c2Cl)c1 (racemic) [Compound 20] | 50 | 0 | 95 | 80 | 90 | 0 | 0 | 0 |  |  |  |  | Plant response rating, Sowthistle ([1]; 8 g ai/ha, preemergence): 0; Plant response rating, Sowthistle ([1]; 16 g ai/ha, preemergence): 65; Plant response rating, Chickweed ([2]; 8 g ai/ha, preemergence): 0; Plant response rating, Horseweed ([3]; 8 g ai/ha, preemergence): 0; Plant response rating, Russian Thistle ([4]; Preemergence, 16 g ai/ha): 0
3 | Cc1cc[n+]([O-])c(S(=O)(=O)C(Cl)c2c(C(F)(F)F)nn(C)c2OCC(F)(F)F)c1 (racemic) [Compound 37] |  |  |  |  |  |  |  |  | 0 | 0 | 0 | 0 | Plant response rating, Spanishneedles ([5]; 16 g ai/ha, preemergence): 0; Plant response rating, Russian Thistle ([4]; Preemergence, 31 g ai/ha): 0
4 | CC(c1c(C(F)(F)F)nn(C)c1OCC(F)(F)F)S(=O)(=O)c1cccc[n+]1[O-] (racemic) [Compound 33] |  |  |  |  |  |  |  |  | 65 | 35 | 35 | 0 | 
